The cell viability is a per cent measure of how many cells are alive, often set against a control. A low value points to more harm to the cells.

These results are taken from US10258697B2, “Efficient delivery of therapeutic molecules in vitro and in vivo” (Massachusetts Eye and Ear Infirmary, priority 2014, dated 2019).

Series [1] relates to cochlear hair cells of Rosa-tdTomato f/f (floxP-tdTomato) mice. As to the kind of experiment: Supercharged GFP-Cre delivery to hair cells of tdTomato reporter mouse cochlea in vivo. As to conditions: for hair cells tdT-labeled: near the injection site (base turn of cochlea). The method, then:
FIGS. 10A and 10B show the in vivo delivery of Cre recombinase to hair cells in the mouse inner ear. FIG. 10A: The scala media (cochlear duct) of P0 floxP-tdTomato mice (n=4) were injected with 0.3 μL of 23 μM (−30)GFP-Cre in 50% RNAiMAX or with RNAiMAX alone (control). After 5 days, tdTomato expression indicative of Cre-mediated recombination was visualized using immunohistology. Red=tdTomato; green=Myo7a; white=Sox2; blue=DAPI. Yellow brackets indicate the outer hair cell (OHC) region. […] Red=tdTomato; green=Esp, white=Sox2; blue=DAPI, Scale bars: 10 μm.
P1 floxP-tdTomato mice (The Jackson Laboratory) were used for (−30)GFP-Cre injection and P2 Atoh1-GFP mice (Dr. J Johnson, Southwestern Medical Center, University of Texas) were used for Cas9:sgRNA injection. Animals were used under protocols approved by the Massachusetts Eye & Ear Infirmary ALCUC committee. Mice were anesthetized by lowering their temperature on ice. Cochleostomies were performed by making an incision behind the ear to expose the cochlea. Glass micropipettes held by a micromanipulator were used to deliver the complex into the scala media, which allows access to inner ear hair cells. For delivery of (−30)GFP-Cre, 3 μL of 45 μM protein was mixed with 3 μL of either RNAiMAX or Lipofectamine 2000 and incubated at room temperature for 30 minutes prior to injection. Four mice were injected per treatment group. […]
5-10 days after injection, the mice were sacrificed and cochlea were harvested by standard protocols. […] To quantify the number of tdTomato positive cells after (−30)GFP-Cre or GFP negative cells after Cas9:sgRNA delivery, the total number of outer hair cells were counted in a region spanning 200 μm around the site of injection in the base turn of the cochlea. The efficiency of (−30)GFP-Cre-induced recombination or Cas9:sgRNA-induced genome modification was calculated as the percentage of outer hair cells that expressed tdTomato or that lost GFP expression. […]

Series [2] concerns BSR.LNL.tdTomato cells. As to the kind of experiment: Primary screen for cytosolic delivery of Cre recombinase (fluorescence image analysis). Conditions: for level of recombination of sortase-conjugated peptide-(+36 GFP)-Cre: 250 nM, primary screen. Format: cell-based, hamster. The method, then:
Initial screen of 20 peptide-(+36 GFP)-Cre conjugated proteins. Cytosolic Cre delivery results in recombination and tdTomato expression. The percentage of tdTomato positive cells was determined by fluorescence image analysis. […] Cells were washed and supplanted with full DMEM and incubated for 48 h. Error bars represent the standard deviation of three independent biological replicates.
BSR.LNL.tdTomato cells were plated at 10,000 cells per well in black 384-well plates (Aurora Biotechnologies). […] Following incubation, the cells were washed three times with PBS+20 U/mL heparin. The cells were incubated a further 48 h in serum-containing media. Cells were fixed in 3% paraformaldehyde and stained with Hoescht 33342 nuclear dye. […] Images were exposed for 10 ms in the DAPI channel (Hoechst) and 500 ms in the dsRed channel (tdTomato). Image analysis was performed using the cell-scoring module of MetaXpress software (Molecular Devices). All nuclei were detected with a minimum width of 1 pixel, maximum width of 3 pixels, and an intensity of 200 gray levels above background. Positive cells were evaluated for uniform signal in the dsRed channel (minimum width of 5 pixels, maximum width of 30 pixels, intensity >200 gray levels above background, 10 μm minimum stained area). In total, nine images were captured and analyzed per well, and 16 wells were treated with the same fusion protein. The primary screen was completed in biological triplicate.
Because Cre recombinase must enter the cell, escape endosomes, enter the nucleus, and catalyze recombination to generate tdTomato fluorescence, this assay reflects the availability of active, non-endosomal recombinase enzyme that reaches the nucleus.
The reporter BSR.LNL.tdTomato cells were incubated with 250 nM of each peptide-(+36 GFP)-Cre protein in serum-free media.

Series [3] has as its system inner ear cell types (IHC, OHC, SC) of Rosa-tdT mouse. As to the kind of experiment: (+36)-GFP-aurein-Cre injection into P3 Rosa-tdT mouse inner ear by cochleostomy. Format: in vivo. Conditions: 50 μM. How it is done: FIGS. 11A-11E show the high efficiency of protein delivery mediated by aurein in the inner ear in vivo. […] FIG. 11E: In Opti-MEM injected control mice no tdT labeling was detected in any inner ear cells. Scale bars: 10 μm.
It was next tested whether Aurein, an antimicrobial peptide, in combination with s-GFP, can serve as an effective carrier to deliver functional proteins into mouse inner ear cell types with high efficiency. (+36)-GFP-aurein-Cre was injected with different concentrations into P3 Rosa-tdT mouse inner ear by cochleostomy in vivo. The tissues were harvested 5 days later for immunolabeling to identify tdT^+ inner ear cell types. […] At 22.5 μM, 58% of OHC and 75% of IHC, as well as 8% of SC were tdT^+. At the highest 50 μM, 96% of OHC, 88% of IHC and 19% of SC were tdT^+. Some spiral ganglion neurons were also tdT at 22.5 and 50 μM (FIGS. 11A-11E and FIG. 12).

For series [4], the system named is BSR.LNL.tdTomato cells. As to the kind of experiment: ATP-dependent cell viability assay (CELLTITER-GLO). Conditions: 1 μM, 48 h after treatment. The method, then:
(§1) FIGS. 15A, 15B are graphs showing the efficacy and toxicity of recombinant expression fusions of aurein 1.2 (“E”) and citropin 1.3 (“U”). […] The percentage of tdTomato positive cells was determined by flow cytometry. Protein fusions were delivered at 125 nM, 250 nM, 500 nM, and 1 μM. […] Protein fusions were delivered at 125 nM, 250 nM, 500 nM, and 1 μM. […] Cells were treated with 250 nM protein for 4 h in serum-free media. Cells were washed and supplanted with full DMEM and incubated for 48 h. Error bars represent the standard deviation of three independent biological replicates.
(§2) Uptake and delivery assays for Cre fusion proteins were performed as previously described (Cronican, J. J.; et al. ACS Chemical Biology 2010, 5, 747). Briefly, proteins were diluted in serum-free DMEM and incubated on the cells in 48-well plates for 4 h at 37° C. Following incubation, the cells were washed three times with PBS+20 U/mL heparin. The cells were incubated a further 48 h in serum-containing media prior to trypsinization and analysis by flow cytometry. […] Toxicity for alanine scan mutational analysis was determined with LIVE/DEAD fixable far-red dead cell stain (Life Technologies) with 635 nm laser and 670/30 nm filter.
Next, the toxicity of each fusion protein was evaluated at a range of concentrations (125 nM to 1 μM) using an ATP-dependent cell viability assay at 48 h after treatment.

A further series deals with mouse retina. Conditions: +36 GFP-Cre alone; cited from earlier work.
Series [5] deals with cochlear inner hair cells, outer hair cells and supporting cells. Format: in vivo. The method, then:
0.4 μL of 50 μM+36 GFP-Cre or aurein 1.2-+36 GFP-Cre were injected into the scala media. […] Inner hair cells (IHC), outer hair cells (OHC) and supporting cells in the sensory epithelium (SE) were imaged for the presence of tdTomato, which is only expressed following Cre-mediated recombination. Hair cells were labeled with antibodies against the hair-cell marker Myo7a.
P1-2 Gt(ROSA)26Sor^tm14(CAG-tdTomato)Hze mice were used for aurein 1.2-+36-GFP-Cre and +36-GFP-Cre injection. The Rosa26-tdTomato mice were from the Jackson Laboratory. Animals were used under protocols approved by the Massachusetts Eye & Ear Infirmary IACUC committee. Mice were anesthetized by hypothermia on ice. Cochleostomies were performed by making an incision behind the ear to expose the cochlea. Glass micropipettes held by a micromanipulator were used to deliver the complex into the scala media, which allows access to inner ear hair cells. The total delivery volume for every injection was 0.4 μL per cochlea and the release was controlled by a micromanipulator at the speed of 69 nL/min.
To quantify the number of tdTomato positive cells after aurein 1.2-+36-GFP-Cre and +36-GFP-Cre, we counted the total number of inner and outer hair cells in a region spanning 100 μm in the apex, middle, and base turn of the cochlea.
Both the hair cells (Myo7a+) and supporting cells (Myo7a−) were evaluated for td Tomato signal.

Series [6] deals with glucocorticoid receptor (GR-mCherry) in HeLa cells. The series is described as follows: GR-mCherry translocation assay. Format: cell-based. As to conditions: 1 μM for 30 min, HeLa cells expressing GR-mCherry. How it is done: One day prior to transfection 10,000 HeLa cells in 200 μL of DMEM (10% FBS, 1× Pen-Strep) were plated into single wells of a 96-well MATRICAL glass bottom microplate (MGB096-1-2-LG-L) and allowed to adhere overnight. The following day, cells were transfected with GRmCherry using LIPOFECTAMINE® 2000 technologies. Following transfection, cells were allowed to recover overnight in DMEM (+10% FBS). The following day, cells were treated with dexamethasone (Dex) or 1 μM Dex-protein conjugate in the presence or absence of inhibitor diluted into DMEM (without phenol red, +300 nM Hoescht33342). After 30 min, cells were washed twice with 200 μL of HEPES-Krebs-Ringer's (HKR) buffer (140 mM NaCl, 2 mM KCl, 1 mM CaCl2, 1 mM MgCl2, and 10 mM HEPES at pH 7.4), after which 100 μL of HKR buffer was overlaid onto the cells and images were acquired on a Zeiss Axiovert 200M epifluorescence microscope outfitted with Ziess AxiocammRM camera and an EXFO-Excite series 120 Hg arc lamp. The translocation ratio (the ratio of median […] intensity in the nuclear and surrounding regions) for individual cells was measured using CELLPROFILER® as described 36. […]
Although endosomal escape is widely considered to be the major bottleneck of cationic protein delivery (Sahay, G.; et al. Nature Biotechnology 2013, 31, 653), few assays quantify the ability of proteins to escape endosomes on a single-cell basis.

The test system of series [7] is BSR.LNL.tdTomato cells. The series is described as follows: Cre delivery assay with expressed fusion proteins (flow cytometry). Format: cell-based, hamster. Conditions: 250 nM, compared with unmutated aurein 1.2-+36 GFP-Cre. The method, then: as §1
as §2, with “cytometry. All flow cytometry were carried out on a BD Fortessa flow cytometer (Becton-Dickinson) using 530/30 nm and 610/20 nm filter sets.” for “cytometry.”
Background: In flow cytometry, cells or beads pass a laser one at a time.

Series [8] concerns BSR.LNL.tdTomato cells. As to the kind of experiment: Toxicity of aurein 1.2 variants fused to +36 GFP-Cre. Type of series: cell-based, hamster. As to conditions: 250 nM. From the text:
FIGS. 16A, 16B are graphs showing the activity and cytotoxicity of aurein 1.2 variants fused to +36 GFP-Cre (FIG. 16A). […] (FIG. 16B) Toxicity as determined by CELLTITERGLO (Promega) assay.

No end group written: not given here. Bounds are passed on as bounds.

Consider “(−30)GFP-Cre: negatively supercharged GFP fused to Cre recombinase, SEQ ID NO: 4”, for which the “hair cells tdT-labeled” value in series [1] is given as about 30%. For the same substance, the “stereocilia of tdTomato-positive outer hair cells” value in series [1] (ten days after delivery, 23 μM in 50% RNAiMAX, P0 floxP-tdTomato mice) was “intact espin (Esp)-expressing stereocilia”.
“+36 GFP-Cre: superpositively charged GFP fused to Cre recombinase, SEQ ID NO: 1”: the “hair cells tdT-labeled” value in series [1] is about 30%. Further, the “recombined cells with chloroquine (positive control)” value with BSR.LNL.tdTomato cells [2] (250 nM protein incubated with 100 μM chloroquine) came out at 48%. In addition, the “cells expressing tdTomato (recombined cells)” value in the series on BSR.LNL.tdTomato cells [2] (250 nM protein, 4 h serum-free media, then 48 h) is recorded as 4.5%. Moreover, in [3], the “tdT labeling of cochlear cell types” value was “very few IHC and HC were labeled with tdT”. Moreover, the cell viability with BSR.LNL.tdTomato cells [4] is reported as 85%. Moreover, the “recombination in mouse retina” value in the series with mouse retina is “modest levels of recombination”. Also, the “Cre-mediated recombination in inner hair cells (IHC)” value in [5] (apex, 50 μM) was 4.4%.
On to “Arg8^Dex: canonical cell permeable peptide (SEQ ID NO: 102), dexamethasone-labeled positive control (RRRRRRRR; also: dexamethasone label)”, for which, in [6], the “nuclear-to-cytoplasm translocation ratio (TR)” value was found to be 1.63.
For the substance “GLFDIIKKIAEAF [S12A, aurein 1.2 variant expressed as fusion with +36 GFP-Cre]”, the “recombination efficiency of aurein 1.2 variants fused to +36 GFP-Cre” value in the series with BSR.LNL.tdTomato cells [7] is reported as “potentially improved overall recombination efficiency”. Further, the “toxicity of aurein 1.2 variants” value in the series on BSR.LNL.tdTomato cells [8] is listed as “increased toxicity”.
Take GLFDIIKKIAESF [aurein 1.2]: the “level of recombination of sortase-conjugated peptide-(+36 GFP)-Cre” value in the series on BSR.LNL.tdTomato cells [2] is listed as “highest level of recombination”. For the same substance, in series [5] (live mice), the “potency of Cre delivery into cochlear hair cells when fused with aurein 1.2 vs absence of the peptide” value was over 20 fold.
Consider “GLFDIIKKVASVIGGL (listed as Litoria citropa) [citropin 1.3]”, for which the “level of recombination of sortase-conjugated peptide-(+36 GFP)-Cre” value in the series on BSR.LNL.tdTomato cells [2] is “moderate level of recombination”.
In the case of “GLFDIIKRIAESF [K8R, aurein 1.2 variant expressed as fusion with +36 GFP-Cre]”, the “recombination efficiency of aurein 1.2 variants fused to +36 GFP-Cre” value in the series with BSR.LNL.tdTomato cells [7] is listed as “potentially improved overall recombination efficiency”. Moreover, in the series with BSR.LNL.tdTomato cells [8], the “toxicity of aurein 1.2 variants” value was “increased toxicity”.
